The series in a line: Thermal degradation of prednicarbate during preparation of the emulsion. The class given is physicochemical. The following applies: in the emulsion during preparation. As to the method: In a particularly key aspect of the present inventive process, the emulsion is cooled from a temperature of about 55 to about 85° C. to a temperature of about 25 to about 45° C. before the prednicarbate is dispersed therein. This cooling step is particularly important because a substantial amount of prednicarbate degradation products will form at temperatures above 63° C. Accordingly, it is necessary to cool the emulsion before adding the prednicarbate to maintain the high prednicarbate purity and low amount of prednicarbate degradation products essential to the present inventive compositions.

Regarding `CCOC(=O)O[C@]1(C(=O)COC(=O)CC)CC[C@H]2[C@@H]3CCC4=CC(=O)C=C[C@]4(C)[C@H]3[C@@H](O)C[C@@]21C` [prednicarbate], the “temperatures at which a substantial amount of prednicarbate degradation products will form” value is “above 63 °C”.

For the origin of these results see patent US20060229258A1, “Steroidal compositions containing hydroxycarboxylic acids and methods of using the same” (priority 2003, published 2006).
